Reference: US9790228B2, “Heterocyclic kinase inhibitors” (Intellikine LLC, priority 2008, dated 2017)
pIC50: −log10 of the molar value. Like-named read-outs stand apart in the source and are kept apart here.

Assays:
Format in all cases: biochemical
p110δ/p85α = p110δ/p85α (Homo sapiens (Human), UniProt O00329); assay: PI3K δ inhibition assay (TLC lipid kinase or HTRF)
Description: (§1) Class I PI3-Ks can be either purchased (p110α/p85α, p110β/p85α, p110δ/p85α from Upstate, and p110γ from Sigma) or expressed as previously described (Knight et al., 2004). IC50 values are measured using either a standard TLC assay for lipid kinase activity (described below) or a high-throughput membrane capture assay. Kinase reactions are performed by preparing a reaction mixture containing kinase, inhibitor (2% DMSO final concentration), buffer (25 mM HEPES, pH 7.4, 10 mM MgCl2), and freshly sonicated phosphatidylinositol (100 μg/ml). Reactions are initiated by the addition of ATP containing 10 μCi of γ-32P-ATP to a final concentration 10 or 100 μM and allowed to proceed for 5 minutes at room temperature. For TLC analysis, reactions are then terminated by the addition of […] 1N HCl followed by 160 μl CHCl3:MeOH (1:1). The biphasic mixture is vortexed, briefly centrifuged, and the organic phase is transferred to a new tube using a gel loading pipette tip precoated with CHCl3. This extract is spotted on TLC plates and developed for 3-4 hours in a 65:35 solution of n-propanol:1M acetic acid. The TLC plates are then dried, exposed to a phosphorimager screen (Storm, Amersham), and quantitated. For each compound, kinase activity is measured at 10-12 inhibitor concentrations representing two-fold dilutions from the highest concentration tested (typically, 200 μM).
(§2) Other commercial kits or systems for assaying PI3-K activities are available. The commercially available kits or systems can be used to screen for inhibitors and/or agonists of PI3-Ks including but not limited to PI 3-Kinase α, β, δ, and γ. Anr exemplary system is PI3-Kinase (human) HTRF™ Assay from Upstate. […] Briefly, the assay is a time resolved FRET assay that indirectly measures PIP3 product formed by the activity of a PI3-K. The kinase reaction is performed in a microtitre plate (e.g., a 384 well microtitre plate). The total reaction volume is approximately 20 ul per well. In the first step, each well receives 2 ul of test compound in 20% dimethylsulphoxide resulting in a 2% DMSO final concentration. Next, approximately 14.5 ul of a kinase/PIP2 mixture (diluted in 1× reaction buffer) is added per well for a final concentration of 0.25-0.3 ug/ml kinase and 10 uM PIP2. The plate is sealed and incubated for 15 minutes at room temperature. To start the reaction, 3.5 ul of ATP (diluted in 1× reaction buffer) is added per well for a final concentration of 10 uM ATP. The plate is sealed and incubated for 1 hour at room temperature. The reaction is stopped by adding 5 ul of Stop Solution per well and then 5 ul of Detection Mix is added per well. The plate is sealed, incubated for 1 hour at room temperature, and then read on an appropriate plate reader. Data is analyzed and IC50s are generated using GraphPad Prism 5.

p110γ = p110γ (Homo sapiens (Human), UniProt P48736); assay: PI3K γ inhibition assay (TLC lipid kinase or HTRF)
Description: as §1, §2

p110α/p85α = p110α/p85α (Homo sapiens (Human), UniProt P42336); assay: PI3K α inhibition assay (TLC lipid kinase or HTRF)
Description: as §1, §2

p110β/p85α = p110β/p85α (Homo sapiens, UniProt P42338); assay: PI3K β inhibition assay (TLC lipid kinase or HTRF)
Description: as §1, §2

Sequence of p110α/p85α (P42336 whole entry): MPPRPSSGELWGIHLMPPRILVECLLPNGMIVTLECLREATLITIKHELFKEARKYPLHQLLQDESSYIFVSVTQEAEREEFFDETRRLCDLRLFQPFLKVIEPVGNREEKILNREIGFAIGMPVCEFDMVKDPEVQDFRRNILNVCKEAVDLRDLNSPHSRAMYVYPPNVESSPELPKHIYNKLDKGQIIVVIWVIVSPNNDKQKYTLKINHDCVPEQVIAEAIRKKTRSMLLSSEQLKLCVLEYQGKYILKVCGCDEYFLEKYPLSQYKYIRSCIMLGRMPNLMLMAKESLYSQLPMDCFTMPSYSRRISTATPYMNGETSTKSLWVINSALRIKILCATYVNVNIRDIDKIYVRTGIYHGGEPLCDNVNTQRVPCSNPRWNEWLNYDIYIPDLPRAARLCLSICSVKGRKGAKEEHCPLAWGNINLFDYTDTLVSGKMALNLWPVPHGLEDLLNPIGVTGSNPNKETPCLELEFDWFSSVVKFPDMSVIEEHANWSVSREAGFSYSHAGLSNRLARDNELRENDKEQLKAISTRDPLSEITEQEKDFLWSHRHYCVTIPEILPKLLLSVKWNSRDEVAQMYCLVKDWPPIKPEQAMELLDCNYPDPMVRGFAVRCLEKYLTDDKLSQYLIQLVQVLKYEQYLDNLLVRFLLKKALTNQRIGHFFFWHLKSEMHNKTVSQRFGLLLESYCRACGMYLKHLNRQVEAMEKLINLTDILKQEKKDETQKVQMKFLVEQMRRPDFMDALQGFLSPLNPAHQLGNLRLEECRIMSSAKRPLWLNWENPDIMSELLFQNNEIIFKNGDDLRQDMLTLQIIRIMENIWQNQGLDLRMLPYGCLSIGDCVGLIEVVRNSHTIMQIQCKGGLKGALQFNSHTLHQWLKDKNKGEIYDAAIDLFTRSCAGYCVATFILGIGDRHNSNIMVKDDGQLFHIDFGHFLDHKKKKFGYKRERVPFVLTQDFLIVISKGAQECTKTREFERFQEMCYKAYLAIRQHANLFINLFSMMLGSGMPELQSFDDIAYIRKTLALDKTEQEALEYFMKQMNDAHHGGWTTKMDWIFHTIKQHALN
Sequence of p110α/p85α (P27986 whole entry partner): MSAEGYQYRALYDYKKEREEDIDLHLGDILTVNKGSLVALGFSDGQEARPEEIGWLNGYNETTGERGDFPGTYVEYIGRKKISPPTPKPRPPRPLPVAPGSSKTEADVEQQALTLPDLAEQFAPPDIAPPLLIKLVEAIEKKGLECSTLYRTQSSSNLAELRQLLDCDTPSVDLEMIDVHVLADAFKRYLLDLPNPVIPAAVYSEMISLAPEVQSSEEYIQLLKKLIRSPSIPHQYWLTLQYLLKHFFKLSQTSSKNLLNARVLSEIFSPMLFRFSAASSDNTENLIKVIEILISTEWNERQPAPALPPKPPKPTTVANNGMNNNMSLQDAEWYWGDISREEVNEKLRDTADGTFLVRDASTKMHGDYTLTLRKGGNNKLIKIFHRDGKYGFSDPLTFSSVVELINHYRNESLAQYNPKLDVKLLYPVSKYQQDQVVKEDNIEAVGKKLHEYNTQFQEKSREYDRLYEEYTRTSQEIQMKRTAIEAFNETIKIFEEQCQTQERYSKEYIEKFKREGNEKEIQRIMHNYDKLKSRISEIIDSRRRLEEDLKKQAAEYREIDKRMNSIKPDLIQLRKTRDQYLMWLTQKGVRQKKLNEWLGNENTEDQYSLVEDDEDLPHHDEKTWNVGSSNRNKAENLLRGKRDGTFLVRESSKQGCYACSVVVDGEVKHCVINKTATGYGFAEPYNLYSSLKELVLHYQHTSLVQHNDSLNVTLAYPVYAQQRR
Sequence of p110β/p85α (P42338 whole entry, looked up): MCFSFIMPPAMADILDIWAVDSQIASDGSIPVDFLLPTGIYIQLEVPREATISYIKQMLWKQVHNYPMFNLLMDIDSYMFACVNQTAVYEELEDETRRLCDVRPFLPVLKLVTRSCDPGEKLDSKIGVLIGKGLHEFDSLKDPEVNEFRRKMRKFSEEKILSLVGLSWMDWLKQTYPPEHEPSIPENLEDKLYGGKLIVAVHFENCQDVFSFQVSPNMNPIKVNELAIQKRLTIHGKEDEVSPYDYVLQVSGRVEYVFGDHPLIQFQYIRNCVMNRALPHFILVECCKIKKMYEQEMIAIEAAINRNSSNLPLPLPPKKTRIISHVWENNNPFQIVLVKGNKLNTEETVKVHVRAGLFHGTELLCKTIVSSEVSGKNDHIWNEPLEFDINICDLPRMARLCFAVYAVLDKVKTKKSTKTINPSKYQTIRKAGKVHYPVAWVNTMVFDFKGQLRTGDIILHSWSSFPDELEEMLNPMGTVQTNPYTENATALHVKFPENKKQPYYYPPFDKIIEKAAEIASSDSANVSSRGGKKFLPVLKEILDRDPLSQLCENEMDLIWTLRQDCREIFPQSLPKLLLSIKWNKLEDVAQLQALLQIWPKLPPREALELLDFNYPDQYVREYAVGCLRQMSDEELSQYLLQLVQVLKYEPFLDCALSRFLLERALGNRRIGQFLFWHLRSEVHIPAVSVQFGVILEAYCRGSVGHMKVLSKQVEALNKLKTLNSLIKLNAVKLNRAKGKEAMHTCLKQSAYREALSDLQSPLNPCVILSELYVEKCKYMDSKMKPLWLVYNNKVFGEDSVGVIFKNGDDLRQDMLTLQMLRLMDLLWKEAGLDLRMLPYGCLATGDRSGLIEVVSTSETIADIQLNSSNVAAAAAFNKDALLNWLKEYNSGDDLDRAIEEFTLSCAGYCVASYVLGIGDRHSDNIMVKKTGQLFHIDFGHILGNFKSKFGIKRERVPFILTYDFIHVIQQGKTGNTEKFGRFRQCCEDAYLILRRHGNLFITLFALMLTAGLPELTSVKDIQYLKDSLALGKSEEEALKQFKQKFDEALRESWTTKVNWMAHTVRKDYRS
Sequence of p110δ/p85α (O00329 whole entry): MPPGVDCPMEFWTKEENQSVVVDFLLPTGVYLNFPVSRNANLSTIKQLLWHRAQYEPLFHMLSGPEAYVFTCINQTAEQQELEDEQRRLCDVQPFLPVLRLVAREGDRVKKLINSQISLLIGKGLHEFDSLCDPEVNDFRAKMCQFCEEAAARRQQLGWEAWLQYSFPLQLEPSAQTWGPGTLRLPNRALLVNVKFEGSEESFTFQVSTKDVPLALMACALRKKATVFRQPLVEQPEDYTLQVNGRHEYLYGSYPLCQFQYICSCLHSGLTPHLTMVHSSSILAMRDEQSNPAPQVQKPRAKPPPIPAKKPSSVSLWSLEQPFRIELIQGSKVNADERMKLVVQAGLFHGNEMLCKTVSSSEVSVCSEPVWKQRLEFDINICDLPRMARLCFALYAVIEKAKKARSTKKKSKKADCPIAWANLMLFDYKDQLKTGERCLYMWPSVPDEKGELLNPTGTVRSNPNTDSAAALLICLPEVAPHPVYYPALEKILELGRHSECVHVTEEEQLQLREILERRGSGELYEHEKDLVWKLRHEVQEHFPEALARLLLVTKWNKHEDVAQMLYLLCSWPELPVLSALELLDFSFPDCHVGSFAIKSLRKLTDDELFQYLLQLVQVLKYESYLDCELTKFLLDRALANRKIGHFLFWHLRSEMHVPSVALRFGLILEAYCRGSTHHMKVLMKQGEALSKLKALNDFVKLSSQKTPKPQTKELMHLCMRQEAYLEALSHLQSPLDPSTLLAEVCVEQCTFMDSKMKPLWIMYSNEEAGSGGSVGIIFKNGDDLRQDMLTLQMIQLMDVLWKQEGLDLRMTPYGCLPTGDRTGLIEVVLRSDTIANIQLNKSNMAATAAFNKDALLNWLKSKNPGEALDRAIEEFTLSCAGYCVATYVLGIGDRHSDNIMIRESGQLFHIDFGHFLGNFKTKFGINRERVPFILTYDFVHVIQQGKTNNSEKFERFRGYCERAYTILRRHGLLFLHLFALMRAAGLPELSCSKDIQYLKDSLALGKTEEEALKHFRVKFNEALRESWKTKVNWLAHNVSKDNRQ
Sequence of p110δ/p85α (P27986 whole entry partner): as the sequence (P27986 whole entry partner) above
Sequence of p110γ (P48736 whole entry): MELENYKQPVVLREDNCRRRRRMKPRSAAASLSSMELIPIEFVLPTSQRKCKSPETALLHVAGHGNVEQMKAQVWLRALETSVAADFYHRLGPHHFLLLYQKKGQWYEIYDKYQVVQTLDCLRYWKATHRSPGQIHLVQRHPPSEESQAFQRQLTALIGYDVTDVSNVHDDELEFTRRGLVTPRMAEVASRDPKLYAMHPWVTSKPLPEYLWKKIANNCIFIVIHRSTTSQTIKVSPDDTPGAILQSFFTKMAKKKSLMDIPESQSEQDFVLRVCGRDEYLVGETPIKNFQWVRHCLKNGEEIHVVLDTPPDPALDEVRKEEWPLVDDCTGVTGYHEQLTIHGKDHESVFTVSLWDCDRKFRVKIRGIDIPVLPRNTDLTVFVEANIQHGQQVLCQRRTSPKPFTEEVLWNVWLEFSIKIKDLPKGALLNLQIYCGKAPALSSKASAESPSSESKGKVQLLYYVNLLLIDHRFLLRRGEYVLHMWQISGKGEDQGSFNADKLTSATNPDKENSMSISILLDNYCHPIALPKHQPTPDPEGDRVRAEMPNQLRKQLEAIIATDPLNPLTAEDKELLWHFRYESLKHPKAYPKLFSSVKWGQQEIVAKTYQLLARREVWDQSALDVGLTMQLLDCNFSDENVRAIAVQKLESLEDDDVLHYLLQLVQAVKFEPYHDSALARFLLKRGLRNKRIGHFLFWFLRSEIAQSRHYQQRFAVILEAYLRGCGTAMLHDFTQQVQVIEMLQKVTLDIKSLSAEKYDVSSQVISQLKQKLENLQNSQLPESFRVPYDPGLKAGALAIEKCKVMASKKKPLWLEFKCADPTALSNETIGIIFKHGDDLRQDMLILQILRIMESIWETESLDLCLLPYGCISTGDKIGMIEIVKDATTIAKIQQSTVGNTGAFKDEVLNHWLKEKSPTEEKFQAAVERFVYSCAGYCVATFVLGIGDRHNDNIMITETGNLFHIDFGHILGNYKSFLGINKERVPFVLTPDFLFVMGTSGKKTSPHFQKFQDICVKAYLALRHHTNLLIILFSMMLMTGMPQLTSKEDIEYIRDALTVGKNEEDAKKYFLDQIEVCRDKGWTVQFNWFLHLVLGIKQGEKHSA

SMILES	pIC50 (p110δ/p85α)	pIC50 (p110γ)	pIC50 (p110α/p85α)	pIC50 (p110β/p85α; read-out: PI3K β IC50)	pIC50 (p110β/p85α; PI3K β IC50)
Nc1ncnc2c1c(-c1cc(O)cc(F)c1)nn2Cc1cc2ccccc2nc1NC1CC1 [Compound 29]	6.00 to 7.00	< 6.00	< 6.00	< 6.00	–
CCC(Nc1ncnc2[nH]cnc12)c1cc2ccccc2nc1N1CCN(C)CC1 (centres unmarked) [Compound 95]	> 7.00	< 6.00	< 6.00	< 6.00	–
NC(=O)c1nn(Cc2cc3ccccc3nc2-c2ccccc2F)c2ncnc(N)c12 [Compound 191]	6.00 to 7.00	< 6.00	< 6.00	–	< 6.00
CC(=O)Nc1nc2ccc(-c3nn(Cc4cc5ccccc5nc4-n4ccnc4C)c4ncnc(N)c34)cc2s1 [Compound 170]	> 7.00	6.00 to 7.00	< 6.00	< 6.00	–
CCc1nc2ccccc2cc1Cn1nc(-c2cccc(O)c2)c2c(N)ncnc21 [Compound 96]	> 7.00	6.00 to 7.00	< 6.00	< 6.00	–
Cc1ccccc1-c1nc2ccccc2nc1Cn1nc(-c2cccc(O)c2)c2c(N)ncnc21 [Compound 108]	6.00 to 7.00	< 6.00	< 6.00	< 6.00	–
Cn1c(=O)c(Cn2nc(-c3cc(O)cc(F)c3)c3c(N)ncnc32)cc2ccccc21 [Compound 112]	> 7.00	6.00 to 7.00	< 6.00	< 6.00	–
NC(=O)/C=C/c1nn(Cc2cc3ccccc3nc2-c2ccccc2F)c2ncnc(N)c12 [Compound 194]	6.00 to 7.00	< 6.00	< 6.00	< 6.00	–
CC(c1cc2ccccc2nc1N1CCN(C)CC1)n1cnc2c(N)ncnc21 (centres unmarked) [Compound 89]	6.00 to 7.00	< 6.00	< 6.00	< 6.00	–
CCn1c(=O)c(Cn2nc(-c3ccc4nc(NC(C)=O)sc4c3)c3c(N)ncnc32)nc2ccccc21 [Compound 118]	> 7.00	6.00 to 7.00	< 6.00	< 6.00	–
Nc1ncnc2c1c(-c1cc(O)cc(F)c1)nn2Cc1cc2ccccc2[nH]c1=O [Compound 114]	> 7.00	< 6.00	< 6.00	< 6.00	–
CNc1ncnc2c1c(-c1cc(O)cc(F)c1)nn2Cc1cc2ccccc2nc1N(C)CCN1CCOCC1 [Compound 76]	< 6.00	< 6.00	< 6.00	< 6.00	–
C=Cc1nn(Cc2cc3ccccc3nc2-c2ccccc2F)c2ncnc(N)c12 [Compound 190]	< 6.00	< 6.00	< 6.00	< 6.00	–
CN1CCN(c2nc3ccccc3cc2Cn2cnc3c(N)ncnc32)CC1 [Compound 67]	< 6.00	< 6.00	< 6.00	–	< 6.00
Cc1cccc2cc(Cn3nc(-c4cccc(O)c4)c4c(N)ncnc43)c(N3CCOCC3)nc12 [Compound 66]	> 7.00	> 7.00	< 6.00	6.00 to 7.00	–
CCc1nc2ccccc2cc1Cn1nc(-c2ccc3nc(NC(C)=O)sc3c2)c2c(N)ncnc21 [Compound 98]	> 7.00	> 7.00	< 6.00	< 6.00	–
CCC(c1cc2ccccc2nc1N1CCN(C)CC1)n1cnc2c(N)ncnc21 (centres unmarked) [Compound 90]	6.00 to 7.00	< 6.00	< 6.00	< 6.00	–
CCc1nc2ccccc2cc1Cn1nc(-c2cc(O)cc(F)c2)c2c(N)ncnc21 [Compound 97]	> 7.00	6.00 to 7.00	< 6.00	6.00 to 7.00	–
CCn1c(=O)c(Cn2nc(-c3cccc(O)c3)c3c(N)ncnc32)nc2ccccc21 [Compound 116]	6.00 to 7.00	< 6.00	< 6.00	< 6.00	–
CCc1nc2ccccc2cc1Cn1nc(-c2ccc3nc(N)sc3c2)c2c(N)ncnc21 [Compound 99]	> 7.00	> 7.00	6.00 to 7.00	6.00 to 7.00	–
